US10111874B2, “Combination therapies for treatment of cancer” (Araxes Pharma LLC, priority 2014, dated 2018)

biological target: T1, KRAS G12C 1-169, his-tagged protein, GDP-loaded (Homo sapiens, UniProt P01116, G12C); assay: Biochemical assay: covalent binding to KRAS G12C analyzed by mass spectrometry; settings: compounds 1-47, measured at 24 h
T1 construct: KRAS G12C 1-169, his-tagged protein, GDP-loaded
Method: Compounds were tested for activity as follows:
Compounds were diluted to 50× final test concentration in DMSO in 96-well storage plates. […] Reactions were mixed carefully and thoroughly by pipetting up/down with a 200 μl multi-channel pipettor. […] 5 μl of 2% formic acid (Fisher cat#A117) in DI H2O was then added to each well followed by mixing with a pipette. The plate was then resealed with aluminum seal and stored on dry ice until analyzed as described below.
The above described assays were analyzed by mass spectrometry according to the following procedure:
The MS instrument is set to positive polarity, 2 GHz resolution, and low mass (1700) mode and allowed to equilibrate for 30 minutes. The instrument is then calibrated, switched to acquisition mode and the appropriate method loaded.
After another 30 minute equilibration time, a blank batch (i.e., buffer) is run to ensure equipment is operating properly. The samples are thawed at 37° C. for 10 minutes, briefly centrifuged, and transfer to the bench top. Wells A1 and H12 are spiked with 1 μL 500 μM internal standard peptide, and the plates centrifuged at 2000×g for 5 minutes. The method is then run and masses of each individual well recorded.
The masses (for which integration data is desired) for each well are pasted into the platemap and exported from the analysis. Masses for the internal standards are exported as well. The data at 50 ppm is extracted for the +19 charge state, and identity of well A1 is assigned using the internal standard spike and integrated. Peak data is exported as a TOF list and the above steps are repeated individually, for the +20, 21, 22, 23, 24, and 25 charge states.

| Compound | Binding % |
| --- | --- |
| C=CC(=O)N1CCN(c2ncnc3cc(Cl)c(-c4ccc(O)cc4)cc23)CC1 [Compound I-12, 1-(4-(7-chloro-6-(4-hydroxyphenyl)quinazolin-4-yl)piperazin-1-yl)prop-2-en-1-one] | + (+indicates binding activity from 5% to 25%) |
| C=CC(=O)N1CCN(c2nccc3cc(Cl)c(-c4ccccc4Cl)cc23)CC1 [Compound I-24, 1-(4-(6-chloro-7-(2-chlorophenyl)isoquinolin-1-yl)piperazin-1-yl)prop-2-en-1-one] | + (+indicates binding activity from 5% to 25%) |

same assay, conditions: compounds 48-246, measured at 2 h

| Compound | Binding % |
| --- | --- |
| C=CC(=O)N1CCN(c2ncnc3cc(-c4ccccc4)c(C4CC4)cc23)CC1 [Compound I-86, 1-(4-(6-cyclopropyl-7-phenylquinazolin-4-yl)piperazin-1-yl)prop-2-en-1-one] | + (+indicates binding activity from 5% to 25%) |
| C=CC(=O)N1CCN(c2ncnc3cc(-c4ccccc4F)c(O)cc23)CC1 [Compound I-163, 1-(4-(7-(2-fluorophenyl)-6-hydroxyquinazolin-4-yl)piperazin-1-yl)prop-2-en-1-one] | + (+indicates binding activity from 5% to 25%) |
| C=CC(=O)N1CCN(c2ncnc3cc(-c4cc(Cl)ccc4F)c(Cl)cc23)CC1 [Compound I-115, 1-(4-(6-chloro-7-(5-chloro-2-fluorophenyl)quinazolin-4-yl)piperazin-1-yl)prop-2-en-1-one] | +++ (+++indicates binding activity greater than 50% and up to 75%) |
| C=CC(=O)N1CCN(c2ncnc3cc(-c4ccccc4F)c(Cl)cc23)CC1CC#N (stereo not shown) [Compound I-106] | ++++ (++++indicates binding activity greater than 75%) |
| C=CC(=O)N1CCN(c2ncnc3cc(-c4ccccc4CO)c(Cl)cc23)CC1 [Compound I-108, 1-(4-(6-chloro-7-(2-(hydroxymethyl)phenyl)quinazolin-4-yl)piperazin-1-yl)prop-2-en-1-one] | ++ (++indicates binding activity greater than 25% and up to 50%) |
| C=CC(=O)N1CCN(c2ncnc3cc(N4CCNCC4)c(Cl)cc23)CC1 [Compound I-80, 1-(4-(6-chloro-7-(piperazin-1-yl)quinazolin-4-yl)piperazin-1-yl)prop-2-en-1-one] | + (+indicates binding activity from 5% to 25%) |
| C=CC(=O)N1CCN(c2ncnc3cc(-c4ccccc4CC4CC4)c(Cl)cc23)CC1 [Compound I-156, 1-(4-(6-chloro-7-(2-(cyclopropylmethyl)phenyl)quinazolin-4-yl)piperazin-1-yl)prop-2-en-1-one] | ++ (++indicates binding activity greater than 25% and up to 50%) |
| C=CC(=O)N1CCN(c2ncnc3cc(-c4ccccc4CC)c(Cl)cc23)CC1CC#N (stereo not shown) [Compound I-107, 2-(1-acryloyl-4-(6-chloro-7-(2-ethylphenyl)quinazolin-4-yl)piperazin-2-yl)acetonitrile] | ++++ (++++indicates binding activity greater than 75%) |
| C=CC(=O)N1CCN(c2ncnc3cc(-c4ccc(F)cc4F)c(C(F)(F)F)cc23)CC1 [Compound I-204, 1-(4-(7-(2,4-difluorophenyl)-6-(trifluoromethyl)quinazolin-4-yl)piperazin-1-yl)prop-2-en-1-one] | +++ (+++indicates binding activity greater than 50% and up to 75%) |
| C=CC(=O)N1CCN(c2ncnc3cc(-c4cc(F)ccc4O)c(Cl)cc23)CC1 [Compound I-122, 1-(4-(6-chloro-7-(5-fluoro-2-hydroxyphenyl)quinazolin-4-yl)piperazin-1-yl)prop-2-en-1-one] | ++ (++indicates binding activity greater than 25% and up to 50%) |
| C=CC(=O)N1CCN(c2cnnc3cc(-c4c(C)ccc5[nH]ncc45)c(Cl)cc23)CC1 [Compound I-238, 1-(4-(6-chloro-7-(5-methyl-1H-indazol-4-yl)cinnolin-4-yl)piperazin-1-yl)prop-2-en-1-one] | +++ (+++indicates binding activity greater than 50% and up to 75%) |
| C=CC(=O)N1CCN(c2ncnc3cc(Cl)c(-c4ccc(Cl)cc4)cc23)C[C@@H]1C#N [Compound I-58, (R)-1-acryloyl-4-(7-chloro-6-(4-chlorophenyl)quinazolin-4-yl)piperazine-2-carbonitrile] | +++ (+++indicates binding activity greater than 50% and up to 75%) |
| C=CC(=O)N1CCN(c2ncnc3cc(-c4cccc5c4CCCC5)c(Cl)cc23)CC1 [Compound I-148, 1-(4-(6-chloro-7-(5,6,7,8-tetrahydronaphthalen-1-yl)quinazolin-4-yl)piperazin-1-yl)prop-2-en-1-one] | +++ (+++indicates binding activity greater than 50% and up to 75%) |

same assay, conditions: compounds 247-342, measured at 30 min

| Compound | Binding % |
| --- | --- |
| Cc1coc(/C=C(\C#N)C(=O)N2CCN(c3ncnc4cc(-c5ccccc5F)c(Cl)cc34)CC2)n1 [Compound I-259, (E)-2-(4-(6-chloro-7-(2-fluorophenyl)quinazolin-4-yl)piperazine-1-carbonyl)-3-(4-methyloxazol-2-yl)acrylonitrile] | +++ (+++indicates binding activity greater than 50% and up to 75%) |
| C=CC(=O)N1CCN(c2ncnc3c(F)c(-c4c(C)ccc5[nH]ncc45)c(Cl)cc23)CC1CO (stereo not shown) [Compound 320, 1-(4-(6-chloro-8-fluoro-7-(5-methyl-1H-indazol-4-yl)quinazolin-4-yl)-2-(hydroxymethyl)piperazin-1-yl)prop-2-en-1-one] | ++ (++indicates binding activity greater than 25% and up to 50%) |
| C=CC(=O)N1CCN(c2nc(OCCCN(C)C)nc3cc(-c4c(C)ccc5[nH]ncc45)c(Cl)cc23)CC1 [Compound 329, 1-(4-(6-chloro-2-(3-(dimethylamino)propoxy)-7-(5-methyl-1H-indazol-4-yl)quinazolin-4-yl)piperazin-1-yl)prop-2-en-1-one] | ++ (++indicates binding activity greater than 25% and up to 50%) |
| C=CC(=O)N1CCN(c2ncnc3c(F)c(-c4cccc5c(C)n[nH]c45)c(Cl)cc23)CC1 [Compound 324, 1-(4-(6-chloro-8-fluoro-7-(3-methyl-1H-indazol-7-yl)quinazolin-4-yl)piperazin-1-yl)prop-2-en-1-one] | + (+indicates binding activity from 5% to 25%) |
| C=CC(=O)N1CCN(c2cnnc3cc(-c4c(C)ccc5[nH]ncc45)c(C(F)(F)F)cc23)CC1 [Compound 305, 1-(4-(7-(5-methyl-1H-indazol-4-yl)-6-(trifluoromethyl)cinnolin-4-yl)piperazin-1-yl)prop-2-en-1-one] | ++ (++indicates binding activity greater than 25% and up to 50%) |
| C=CC(=O)N1CCN(c2nc(OCCCN(C)C)nc3c(F)c(-c4c(C)ccc5[nH]ncc45)c(Cl)cc23)CC1 [Compound 339, 1-(4-(6-chloro-2-(3-(dimethylamino)propoxy)-8-fluoro-7-(5-methyl-1H-indazol-4-yl)quinazolin-4-yl)piperazin-1-yl)prop-2-en-1-one] | ++++ (++++indicates binding activity greater than 75%) |

same assay, conditions: compounds 247-342, measured at 30 min; listed as 256

| Compound | Binding % |
| --- | --- |
| C=CC(=O)N1CCN(c2ncnc3c(F)c(-c4cc(O)cc5ccccc45)c(Cl)cc23)CC1 [Compound I-256, 1-(4-(6-chloro-8-fluoro-7-(3-hydroxynaphthalen-1-yl)quinazolin-4-yl)piperazin-1-yl)prop-2-en-1-one] | +++ (+++indicates binding activity greater than 50% and up to 75%) |

same assay, conditions: determined at 2 hrs

| Compound | Binding % |
| --- | --- |
| C=CC(=O)N1CC(N2CCN(C(=O)[C@@H](C)Nc3cc(C4CC4)c(Cl)cc3O)CC2)C1 [II-68, (R)-1-(3-(4-(2-(4-chloro-5-cyclopropyl-2-hydroxyphenylamino)-propanoyl)piperazin-1-yl)azetidin-1-yl)prop-2-en-1-one] | ++ (++indicates binding activity greater than 20%) |
| C=CC(=O)N1CC(N2CCN(C(=O)CNc3cc(C4CC4)c(Cl)cc3O)CC2CO)C1 (stereo not shown) [II-54, 1-(3-(4-(2-(4-Chloro-5-cyclopropyl-2-hydroxyphenylamino)acetyl)-2-(hydroxymethyl)piperazin-1-yl)azetidin-1-yl)prop-2-en-1-one] | ++ (++indicates binding activity greater than 20%) |

same assay, conditions: determined at 24 hrs

| Compound | Binding % |
| --- | --- |
| C=CC(=O)N1CC(N2CCN(C(=O)CNc3cc4ccccc4cc3O)CC2)C1 [II-43, 1-(3-(4-(2-(3-hydroxynaphthalen-2-ylamino)acetyl)-piperazin-1-yl)azetidin-1-yl)prop-2-en-1-one] | ++++ (++++indicates binding activity greater than 50%) |
| 1-(4-(2′,6-dichloro-4-methoxybiphenylcarbonyl)piperazin-1-yl)prop-2-en-1-one [III-1] | + (+indicates binding activity from 5% to 10%) |
| C=CC(=O)NC1CN(C2CN(C(=O)CNc3cc(Cl)c(Cl)cc3O)C2)C1 [II-3, N-(1′-(2-(4,5-dichloro-2-hydroxyphenyl-amino)acetyl)-1,3′-biazetidin-3-yl)acrylamide] | ++++ (++++indicates binding activity greater than 50%) |
| C=CC(=O)N1CC(N2CCN(C(=O)CNc3cc(S(C)(=O)=O)ccc3O)CC2)C1 [II-34, 1-(3-(4-(2-(2-hydroxy-5-(methylsulfonyl)-phenylamino)acetyl)-piperazin-1-yl)azetidin-1-yl)prop-2-en-1-one] | + (+indicates binding activity from 5% to 15%) |
